Source: US4983740A, “Process for 1,4-dihydropyridine compounds” (Adir et Compagnie, priority 1986, dated 1991)
pIC50: −log10 of the molar value. Structures can show the parent of a compound that is named as a salt.

Test system: rat aorta
Assay: In vitro activity in rat aorta stimulated by potassium ions
Assay type: cell-based, rat (male Wistar)
Settings: 1 h; rat aorta rings, KCl 80 mM stimulation, cumulative doses at 60 minutes intervals
Method: Determination of the Vitro Activity in Rat Aorta Stimulated by Potassium Ions
This trial was carried out using isolated organs removed from male Wistar rats weighing 300 to 400 g, kept under a water diet 18 hours before sacrificing.
After quickly sacrificing the animal, the aorta (at the level of the arch of the aorta) is removed and dissected into 2 mm-long rings; the endothelium is removed mechanically. After an equilibration period of 1 hour in a physiological solution consisting of (mM): NaCl 112, KCl 5, KH2 PO4 1, MgSO4 1.2, CaCl2 2.5, NaHCO3 25 and glucose 11.5, the preparations are stimulated with a potassium-rich solution. The latter consists of (mM):NaCl 37, KCl 80, KH2 PO4 1, MgSO4 1.2, CaCl2 2.5, NaHCO3 25 and glucose 11.5. This solution has a pH of 7.4 at 37° C.
After 15 minutes of stabilization, the compounds to be tested are then added (sample volume 0.2 ml) at cumulative doses at 60 minutes intervals. From the relaxation values obtained, it is possible to construct a doseresponse curve, leading to the calculation of an IC50 value (expressed in M).

SMILES	pIC50
CCOC(=O)C1=C(COCCOCCN)NC(C)=C(C(=O)OC)C1c1ccc(OC)c(OC)c1OC (racemic) [EXAMPLE 3, (4R,S)-2-{[2-(2-Aminoethoxy)ethoxy]methyl}-3-ethoxycarbonyl-5-methoxycarbonyl-6-methyl-4-(2,3,4-trimethoxyphenyl)-1,4-dihydropyridine fumarate]	6.00
CCOC(=O)C1=C(COCCOCCN)NC(C)=C(C(=O)OCC(C2CC2)C2CC2)C1c1ccccc1Cl (racemic) [EXAMPLE 9, (4R,S)-2-{[2-(2-Aminoethoxy)ethoxy]methyl}-4-(2-chlorophenyl)-5-(2,2-dicyclopropylethoxycarbonyl)-3-ethoxycarbonyl-6-methyl-1,4-dihydropyridine fumarate]	5.52
CCOC(=O)C1=C(COCCOCCN)NC(COC)=C(C(=O)OC)C1c1cccc(Cl)c1Cl (racemic) [EXAMPLE 10, (4R,S)-2-{[2-(2-Aminoethoxy)ethoxy]methyl}-4-(2,3-dichlorophenyl)-3-ethoxycarbonyl-5-methoxycarbonyl-6-methoxymethyl-1,4-dihydropyridine]	7.05
CCOC(=O)C1=C(COCCOCC[N+](C)(C)Cc2ccccc2)NC(C)=C(C(=O)OC)C1c1cccc(Cl)c1Cl (racemic) [EXAMPLE 11, N-Benzyl-7-[(4R,S)-3-ethoxycarbonyl-4-(2,3-dichlorophenyl)-5-methoxycarbonyl-6-methyl-2-(1,4-dihydropyridyl)]-N,N-dimethyl-3,6-dioxaheptanammonium iodide]	6.60
CCOC(=O)C1=C(CCCCCN)NC(C)=C(C(=O)OC)C1c1ccccc1Cl (racemic) [EXAMPLE 14, (4R,S)-2-(5-Aminopentyl)-4-(2-chlorphenyl)-3-ethoxycarbonyl-5-methoxycarbonyl-6-methyl-1,4-dihydropyridine citrate]	7.40
CCOC(=O)C1=C(COCCOCCN)NC(C)=C(C(=O)OC)C1c1ccccc1C(F)(F)F (racemic) [EXAMPLE 17, (4R,S)-2-{[2-(2-Aminoethoxy)ethoxy]methyl}-3-ethoxycarbonyl-5-methoxycarbonyl-6-methyl-4-(2-trifluoromethylphenyl)-1,4-dihydropyridine fumarate]	8.12
CCOC(=O)C1=C(COCCOCCNC(=O)C(F)(F)F)NC(C)=C(C(=O)OC)C1c1c(F)c(F)c(F)c(F)c1F (racemic) [EXAMPLE 21, (4R,S)-2-[{2-[2-(N-Trifluoroacetylamino)ethoxy]-ethoxy}methyl]-3-ethoxycarbonyl-5-methoxycarbonyl-6-methyl-4-pentafluorophenyl-1,4-dihydropyridine]	7.17
COC(=O)C1=C(C)NC(COCCOCCN)=C(C(=O)OC(C)C)C1c1c(F)c(F)c(F)c(F)c1F (racemic) [EXAMPLE 26, (4R,S)-2-{[2-(2-Aminoethoxy)ethoxy]methyl}-3-isopropoxycarbonyl-5-methoxycarbonyl-6-methyl-4-pentafluorophenyl-1,4-dihydropyridine tartrate]	6.51
CCOC(=O)C1=C(COCCCOCCCN)NC(C)=C(C(=O)OC)C1c1cccc(Cl)c1Cl (racemic) [EXAMPLE 27, (4R,S)-2-{[3-(3-Aminopropoxy)propoxy]methyl}-4-(2,3-dichlorophenyl)-3-ethoxycarbonyl-5-methoxycarbonyl-6-methyl-1,4-dihydropyridine fumarate]	8.36
COC(=O)C1=C(C)NC(COCCOCCN)=C(C(=O)OCC(C)C)C1c1cccc(Cl)c1Cl (racemic) [EXAMPLE 28, (4R,S)-2-{[2-(2-Aminoethoxy)ethoxy]methyl}-4-(2,3-dichlorophenyl)-3-isobutyloxycarbonyl-5-methoxycarbonyl-6-methyl-1,4-dihydropyridine fumarate]	8.03
CCOC(=O)C1=C(COCCOCCN)NC(C)=C(C(=O)OC)C1c1cc(Cl)cc(Cl)c1Cl (racemic) [EXAMPLE 31, (4R,S)-2-{[2-(2-Aminoethoxy)ethoxy]methyl}-3-ethoxycarbonyl-5-methoxycarbonyl-6-methyl-4-(2,3,5-trichlorophenyl)-1,4-dihydropyridine fumarate]	6.77
CCCNCCOCCOCC1=C(C(=O)OCC)C(c2c(F)c(F)c(F)c(F)c2F)C(C(=O)OC)=C(C)N1 (racemic) [EXAMPLE 34, (4R,S)-3-Ethoxycarbonyl-5-methoxycarbonyl-6-methyl-4-pentafluorophenyl-2-[{2-[2-(N-propylamino)ethoxy]ethoxy}-methyl]-1,4-dihydropyridine fumarate]	8.96

Next, values leading:

pIC50	SMILES
6.52	COC(=O)C1=C(C)NC(COCCOCCN)=C(C(=O)OCC(C2CC2)C2CC2)C1c1ccccc1Cl (racemic) [EXAMPLE 4, (4R,S)-2-{[2-(2-Aminoethoxy)ethoxy]methyl}-4-(2-chlorophenyl)-3-(2,2-dicyclopropylethoxycarbonyl)-5-methoxycarbonyl-6-methyl-1,4-dihydropyridine fumarate]
6.52	COC(=O)C1=C(C)NC(CCCCCCCN)=C(C(=O)OCC(C2CC2)C2CC2)C1c1ccccc1Cl (racemic) [EXAMPLE 13, (4R,S)-2-(7-Aminoheptyl)-4-(2-chlorophenyl)-3-(2,2-dicyclopropylethoxycarbonyl)-5-methoxycarbonyl-6-methyl-1,4-dihydropyridine fumerate]
6.92	CCOC(=O)C1=C(C)NC(COCCOCCN)=C(C(=O)OCC)C1c1c(F)c(F)c(F)c(F)c1F (racemic) [EXAMPLE 15, (4R,S)-2-{[2-(2-Aminoethoxy)ethoxy]methyl}-3,5-diethoxycarbonyl-6-methyl-4-pentafluorophenyl-1,4-dihydropyridine]
7.21	CCCNCCOCCOCC1=C(C(=O)OCC)C(c2c(F)c(F)c(F)c(F)c2F)C(C(=O)OCC)=C(C)N1 (racemic) [EXAMPLE 16, (4R,S)-3,5-Diethoxycarbonyl-6-methyl-4-pentafluorophenyl-2-[{2-[2-(N-propylamino)ethoxy]ethoxy}methyl]-1,4-dihydropyridine oxalate]
8.33	CCOC(=O)C1=C(COCCOCCN)NC(C)=C(C(=O)OC)C1c1cccc(Cl)c1 (racemic) [EXAMPLE 18, (4R,S)-2-{[2-(2-Aminoethoxy)ethoxy]methyl}-4-(3-chlorophenyl)-3-ethoxycarbonyl-5-methoxycarbonyl-6-methyl-1,4-dihydropyridine tartrate]
8.31	COC(=O)C1=C(C)NC(COCCOCCN)=C(C(=O)OC)C1c1c(F)c(F)c(F)c(F)c1F (racemic) [EXAMPLE 19, (4R,S)-2-{[2-(2-Aminoethoxy)ethoxy]methyl}-3,5-dimethoxycarbonyl-6-methyl-4-pentafluorophenyldihydropyridine tartrate]
7.59	CCOC(=O)C1=C(C)NC(COCCOCCN)=C(C(=O)OC)C1c1c(F)c(F)c(F)c(F)c1F (racemic) [EXAMPLE 20, (4R,S)-2-{[2-(2-Aminoethoxy)ethoxy]methyl}-5-ethoxycarbonyl-3-methoxycarbonyl-6-methyl-4-pentafluorophenyldihydropyridine tartrate]
7.70	CCOC(=O)C1=C(COCCOCCN)NC(C)=C(C(=O)OC)C1c1cccc(SC)c1OC (racemic) [EXAMPLE 22]
6.70	COC(=O)C1=C(C)NC(COCCOCCN)=C(C(=O)OCc2ccc([N+](=O)[O-])cc2)C1c1c(F)c(F)c(F)c(F)c1F (racemic) [EXAMPLE 23, (4R,S)-2-{[2-(2-Aminoethoxy)ethoxy]methyl}-3-(4-nitrobenzyloxycarbonyl)-5-methoxy-6-methyl-4-pentafluorophenyl-1,4-dihydropyridine tartrate]
9.09	CCOC(=O)C1=C(COCCCOCCCN)NC(C)=C(C(=O)OC)C1c1c(F)c(F)c(F)c(F)c1F (racemic) [EXAMPLE 24, (4R,S)-2-{[3-(3-Aminopropoxy)propoxy]methyl}-3-ethoxycarbonyl-5-methoxycarbonyl-4-pentafluorophenyl-1,4-dihydropyridine tartrate]
7.89	COC(=O)C1=C(C)NC(COCCOCCN)=C(C(=O)OC(C)C)C1c1cccc(Cl)c1Cl (racemic) [EXAMPLE 25, (4R,S)-2-{[2-(2-Aminoethoxy)ethoxy]methyl}-4-(2,3-dichlorophenyl)-3-isopropoxycarbonyl-5-methoxycarbonyl-6-methyl-1,4-dihydropyridine fumarate]
7.60	CCOC(=O)C1=C(COCCCOCCCN)NC(C)=C(C(=O)OC)C1c1cccc(C(F)(F)F)c1SC (racemic) [EXAMPLE 30, (4R,S)-2-{[3-(3-Aminopropoxy)propoxy]methyl}-3-ethoxycarbonyl-5-methoxycarbonyl-6-methyl-4-(2-methylthio-3-trifluoromethylphenyl)-1,4-dihydropyridine fumarate]
7.49	CCOC(=O)C1=C(COCCOCCN)NC(C)=C(C(=O)OC)C1c1c(Cl)ccc(Cl)c1Cl (racemic) [EXAMPLE 32, (4R,S,)-2-{[2-(2-Aminoethoxy)ethoxy]methyl}-3-ethoxycarbonyl-5-methoxycarbonyl-6-methyl-4-(2,3,6-trichlorophenyl)-1,4-dihydropyridine fumarate]
7.11	COC(=O)C1=C(C)NC(COCCOCCN)=C(C(=O)OCCCC(C2CC2)C2CC2)C1c1cccc(Cl)c1Cl (racemic) [EXAMPLE 33, (4R,S)-2-{[2-(2-Aminoethoxy)ethoxy]methyl}-4-(2,3-dichlorophenyl)-3-(4,4-dicyclopropylbutyloxycarbonyl)-5-methoxycarbonyl-6-methyl-1,4-dihydropyridinefumarate]
